Data taken from PubChem BioAssay (NCI).
Several values for one entry are separate records, joined by “and”; a condition that tells them apart may be missing. Equal entries are not always repeated.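 Protocol summary: plate cells (96-well), add compound at 5 concentrations, incubate 48 h, interpolate endpoints linearly. TGI marks complete inhibition of growth.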

Legend:
Test in all cases: NCI tumour cell line growth inhibition, 48 h
ACHN renal = tested on: ACHN renal
U251 CNS = tested on: U251 CNS
UACC-62 melanoma = tested on: UACC-62 melanoma
HCT-15 colon = tested on: HCT-15 colon
MCF7 breast = tested on: MCF7 breast
MDA-MB-231 breast = tested on: MDA-MB-231 breast
MALME-3M melanoma = tested on: MALME-3M melanoma
RPMI-8226 leukemia = tested on: RPMI-8226 leukemia
SF-268 CNS = tested on: SF-268 CNS
A498 renal = tested on: A498 renal

Measured: TGI

CCOC(=O)/C=C1\Nc2ccccc2C12CCc1c([nH]c3ccccc13)C2C(=O)OCC (centres undefined)
61.9 µM: RPMI-8226 leukemia
> 100 µM: all other assays above

CC(=O)N[C@@H](Cc1ccc(O)cn1)C(=O)NCc1ccc2c(c1)OCO2
not listed: MDA-MB-231 breast
> 100 µM: all other assays above

CCCCCCCCCCCCCCCCOCC(CC(F)(F)P(=O)(O)O)OC(C)=O (centres undefined)
> 50 µM: all assays above

Brc1ccc(N2C[N+](c3ccc(Br)cc3)=NC(c3ccccc3)=N2)cc1
28.2 µM and > 100 µM: UACC-62 melanoma
35.8 µM and > 100 µM: SF-268 CNS
32.8 µM and > 100 µM: A498 renal
31.2 µM and > 100 µM: MALME-3M melanoma
26.4 µM and > 100 µM: ACHN renal
27.7 µM and > 100 µM: RPMI-8226 leukemia
33.5 µM and > 100 µM: U251 CNS | HCT-15 colon

CCCCc1ccc2[n+](c1)C(C(=O)OCC)=PC2 (centres undefined)
not listed: MDA-MB-231 breast
> 100 µM: all other assays above

O=C(c1cccs1)N(C(=S)N1CCN(c2ccccc2)CC1)c1ccccc1
not listed: MCF7 breast | MDA-MB-231 breast | A498 renal
> 100 µM: all other assays above

Oc1c2cccc1Cc1cccc3c1OCCOCCOCCOCCOc1c(cccc1Cc1cccc(c1O)C3)C2
not listed: MALME-3M melanoma
> 100 µM: all other assays above

O=C1CSC2(CC(/C=C/C=C/c3ccccc3)=NN2c2cccc(S(=O)(=O)O)c2)N1c1nc2ccccc2s1 (centres undefined)
74.4 µM: U251 CNS
55 µM: RPMI-8226 leukemia
not listed: MALME-3M melanoma | SF-268 CNS
> 100 µM: all other assays above

COc1cc(C2SCC(=O)N2NC(=O)c2ccc(NC(C)=O)cc2)cc(OC)c1OC (centres undefined)
not listed: MALME-3M melanoma
> 100 µM: all other assays above

O=[N+]([O-])c1ccc2nc3ccc([N+](=O)[O-])cn3c2c1
not listed: RPMI-8226 leukemia
> 100 µM: all other assays above

COc1ccc(C(=O)Cc2cc(OC)ccc2OC)cc1
not listed: MCF7 breast | MDA-MB-231 breast
> 100 µM: all other assays above

COc1cc(C(=O)Nc2nnc(S(N)(=O)=O)s2)cc(OC)c1OC
not listed: A498 renal
> 100 µM: all other assays above

O=C(Cn1c2ccc(Br)cc2c2nc3ccccc3nc21)NC1CCCCC1
not listed: MCF7 breast
> 100 µM: all other assays above

O=CNc1cccc2c3c([nH]c12)CCCCCC3
not listed: ACHN renal | MDA-MB-231 breast | RPMI-8226 leukemia
> 100 µM: all other assays above

O=C1NC(=O)/C(=C\c2ccncc2)N1
> 100 µM: ACHN renal | U251 CNS | HCT-15 colon | MCF7 breast | MDA-MB-231 breast

O=C1c2cc3c(cc2CC12Cc1cc4c(cc1C2)CCC4)CCC3
not listed: UACC-62 melanoma
> 100 µM: all other assays above

O=C1/C(=C/c2ccccc2S)N=C(c2ccccc2)N1c1ccc2c(c1)Sc1cc(N3C(=O)/C(=C/c4ccccc4S)N=C3c3ccccc3)ccc1N2
89.9 µM: MDA-MB-231 breast
46.8 µM: RPMI-8226 leukemia
42.7 µM: UACC-62 melanoma
33.5 µM: ACHN renal
40.5 µM: U251 CNS
39.1 µM: MCF7 breast
35.4 µM: A498 renal
39.6 µM: SF-268 CNS
> 100 µM: HCT-15 colon

Cc1ccc(S(=O)(=O)C(C#N)c2nc3ccccc3nc2-n2cccn2)cc1 (centres undefined)
> 100 µM: ACHN renal | U251 CNS | HCT-15 colon | MALME-3M melanoma | RPMI-8226 leukemia | SF-268 CNS

O=C1C/C(=C\O)C(=O)c2ccccc2N1
not listed: RPMI-8226 leukemia
> 100 µM: all other assays above

CC(=O)O[C@]12CCCCCCC1C1(O)C(O)CCC[C@H]12 (some centres undefined)
not listed: MCF7 breast | MDA-MB-231 breast | A498 renal
> 100 µM: all other assays above

CCCCCCCCCCCCC(=O)NCC(=O)NC(Cc1ccccc1)C(=O)Oc1ccc([N+](=O)[O-])cc1 (centres undefined)
not listed: U251 CNS | MALME-3M melanoma | RPMI-8226 leukemia
> 100 µM: all other assays above

CNc1ccc2nc(-c3ccc(OC(=O)N(C)C)cc3)cn2c1
37.3 µM: ACHN renal
> 100 µM: MALME-3M melanoma
35.1 µM: UACC-62 melanoma
28.8 µM: U251 CNS
43.6 µM: MCF7 breast
32.2 µM: A498 renal
30 µM: SF-268 CNS
40.2 µM: HCT-15 colon
31.5 µM: MDA-MB-231 breast

N#Cc1c(=O)c2cccnc2n2c1[nH]c1ccccc12
not listed: MALME-3M melanoma
> 100 µM: all other assays above

C=C1C(=O)O[C@H]2C1[C@H](OC(=O)/C(C)=C\COC(C)=O)C[C@]1(CO1)[C@@H]1[C@H](O)[C@H]3O[C@@]3(C)[C@@H]12 (some centres undefined)
49.7 µM: SF-268 CNS
44.7 µM: U251 CNS
30.4 µM: UACC-62 melanoma
> 56.1 µM: HCT-15 colon
99 µM: A498 renal
27.8 µM: MCF7 breast
38 µM: MALME-3M melanoma
46.5 µM: RPMI-8226 leukemia
